Results on three compounds are retold here after US4220755A, “Fortimicin B derivatives and process for production thereof” (Abbott Laboratories, priority 1976, dated 1980).

Converted amounts (≈) assume the structure as drawn. Like-named read-outs stand apart in the source and are kept apart here.

Data set [1] concerns various microorganisms. The data set can be described thus: Antibacterial activity (general statements). In kind it is cell-based. As to conditions: qualitative statement. The protocol:
(§1) Measurement was carried out according to the agar dilution method, using a medium of pH 8.0, or the Japanese Antibiotic Medicament Standard, using a medium of pH 7.2 Units are in mcg/ml.

Data set [2] deals with Klebsiella pneumoniae 8045. The data set can be described thus: ED50 in infected mice. Format: in vivo, ddY-strain mice. The settings on record: 168 h, read-out: ED50 KP. The protocol: (§2) In this experiment, one group consisting of five ddY-strain mice is used. The microorganisms shown below are inoculated into each animal. One hour after the inoculation, test compounds dissolved in distilled water for injection are injected intraperitoneally to test animals by one shot. The test animals are observed one week after the injection, and the ED50 is calculated according to the method of Behrens-Karber.
*^1 KP means Klebsiella pneumoniae 8045. 1.3 × 10^5 cells
are inoculated into each mouse.

Data set [3] is described as follows: in vivo. The settings on record: mouse, iv. Here is the method:
In this experiment, one group consisting of five ddY-strain mice is used. Test compounds dissolved in 0.2 ml of distilled water for injection are injected intravenously into each animal in 10 seconds. The LD50 is calculated according to the method of Behrens-Karber.

In data set [4] the test system is Escherichia coli Juhl. As to the kind of experiment: ED50 in infected mice. The settings on record: ip, 168 h, read-out: ED50 EC. In kind it is in vivo, ddY-strain mice. The protocol:
as §2
*^2 EC means Escherichia coli Juhl. 2.1 × 10^4 cells are
inoculated into each mouse.

Data set [5] concerns Eschericia coli KY4271 ATCC26. The data set can be described thus: MIC, agar dilution method, pH 8.0. Format: cell-based. As to conditions: Escherichia coli, ATCC26; pH 8.0; E. coli KY4271; read-out: Minimum inhibition concentration (MIC), EC. Here is the method:
as §1
E.C.: Eschericia coli KY4271 ATCC26
In general terms: Agar dilution tests growth on a series of plates holding different concentrations.

The test system of data set [6] is Shigella sonnei KY4281 ATCC9290. The data set can be described thus: MIC, agar dilution method, pH 8.0. Format: cell-based. As to conditions: ATCC9290; pH 8.0; Shigella sonnei KY4281; read-out: Minimum inhibition concentration (MIC), SS. The protocol:
as §1

Data set [7] deals with Proteus vulgaris KY4277 ATCC6897. The data set can be described thus: MIC, agar dilution method, pH 8.0. As to conditions: ATCC6897; pH 8.0; Proteus vulgaris KY4277; read-out: Minimum inhibition concentration (MIC), PV. Format: cell-based. Here is the method: as §1
Data set [8] in a line: Stability in alkaline aqueous conditions. As to conditions: for Stability in aqueous solution: free base. Format: physicochemical. The protocol: The stability of 4-N-acylfortimicin B derivatives in aqueous alkaline conditions is poor. […] Therefore, purification of these compounds under basic conditions (for example, column chromatography with Amberlite CG-50, eluting with aqueous ammonia) is not practical.
In contrast with the instability of 4-N-acylfortimicin B derivatives, 4-N-alkylfortimicin B derivatives are so stable that no decomposition occurs even in aqueous barium hydroxide solution at reflux temperature for 18 hours. Therefore, in the case of 4-N-alkylfortimicin B, any substituents can be introduced at 4-N-position of fortimicin B, even though such substituents can not be introduced as the acyl type to such position due to the aforementioned instability.

A word on the ED50: it is the midpoint of the dose-response relation. As a reminder, the LD50 is the dose expected to kill half of the subjects tested. Read a high LD50 as a less toxic substance.

In the case of `CO[C@H]1[C@@H](O)[C@H](N)[C@@H](O[C@H]2O[C@H]([C@H](C)N)CC[C@H]2N)[C@H](O)[C@@H]1N(C)C(=O)CN` [Compound 2, 4-N-glycylfortimicin B, reference compound], in data set [1], the Antibacterial activity entry is given as “have antibacterial activity”. Also, the ED50 in data set [2] (Klebsiella pneumoniae, 8045, ip) was found to be 2.06 mg/kg; in data set [4] (Escherichia coli), 5.06 mg/kg. In data set [3], the LD50 turned out to be 330 mg/kg. Besides, the MIC came to 0.16 µg/mL (≈ 0.395 µM) in data set [5], 0.63 µg/mL (≈ 1.55 µM) in data set [6] and 0.32 µg/mL (≈ 0.789 µM) in data set [7]. The “Stability in aqueous solution” value in data set [8] (pH 10, 100° C., 4 hours) was “almost completely decomposed”; in data set [8] (pH 10, room temperature, 2 weeks), “almost completely decomposed”. Also, the “Stability under strongly alkaline conditions” value in data set [8] is “slightly unstable”.

On to `CO[C@H]1[C@@H](O)[C@H](N)[C@@H](O[C@H]2O[C@H]([C@H](C)N)CC[C@H]2N)[C@H](O)[C@@H]1N(C)C(=O)CNC(N)=O` [Compound 3, 4-N-hydantoylfortimicin B, reference compound], for which, in data set [1], the Antibacterial activity entry is “have antibacterial activity”. Also, the MIC in data set [5] worked out at 0.08 µg/mL (≈ 0.178 µM); in data set [6] it was 1.25 µg/mL (≈ 2.79 µM); in data set [7], 0.63 µg/mL (≈ 1.4 µM). Also, in data set [8], the “Stability under strongly alkaline conditions” value is on record as “slightly unstable”.

As to `CO[C@H]1[C@@H](O)[C@H](N)[C@@H](O[C@H]2O[C@H]([C@H](C)N)CC[C@H]2N)[C@H](O)[C@@H]1N(C)C[C@@H](O)CCN` [Compound 27, 4-N-[(S)-4-amino-2-hydroxybutyl]fortimicin B], the ED50 came to 1.88 mg/kg in data set [2] (ip, mice, intraperitoneal one shot 1 hour after inoculation of Klebsiella pneumoniae 8045 (1.3 × 10^5 cells), sulfate, one week observation) and 2.81 mg/kg in data set [4] (mice, intraperitoneal one shot 1 hour after inoculation of Escherichia coli Juhl (2.1 × 10^4 cells), sulfate, one week observation). The LD50 in data set [3] was 135 mg/kg. In addition, the MIC worked out at 0.16 µg/mL (≈ 0.367 µM) in data set [5], 1.25 µg/mL (≈ 2.87 µM) in data set [6] and 0.32 µg/mL (≈ 0.735 µM) in data set [7].
